Earlier results in patent publication US8846744B2, “Pharmaceutical compositions of co-crystals of tramadol and coxibs” (Laboratorios del Dr. Esteve, S.A., priority 2010, dated 2014).

- solubility in water: practically insoluble
Structure (SMILES): Cc1ccc(-c2cc(C(F)(F)F)nn2-c2ccc(S(N)(=O)=O)cc2)cc1 [Celecoxib, 4-[5-(4-methylphenyl)-3-(trifluoromethyl)pyrazol-1-yl]benzenesulfonamide]
